# The source made the active and inactive calls.
# Molecular target: T1, Cyclin-dependent kinase-like 5 (Homo sapiens, UniProt O76039)
# T1 sequence (O76039 whole entry): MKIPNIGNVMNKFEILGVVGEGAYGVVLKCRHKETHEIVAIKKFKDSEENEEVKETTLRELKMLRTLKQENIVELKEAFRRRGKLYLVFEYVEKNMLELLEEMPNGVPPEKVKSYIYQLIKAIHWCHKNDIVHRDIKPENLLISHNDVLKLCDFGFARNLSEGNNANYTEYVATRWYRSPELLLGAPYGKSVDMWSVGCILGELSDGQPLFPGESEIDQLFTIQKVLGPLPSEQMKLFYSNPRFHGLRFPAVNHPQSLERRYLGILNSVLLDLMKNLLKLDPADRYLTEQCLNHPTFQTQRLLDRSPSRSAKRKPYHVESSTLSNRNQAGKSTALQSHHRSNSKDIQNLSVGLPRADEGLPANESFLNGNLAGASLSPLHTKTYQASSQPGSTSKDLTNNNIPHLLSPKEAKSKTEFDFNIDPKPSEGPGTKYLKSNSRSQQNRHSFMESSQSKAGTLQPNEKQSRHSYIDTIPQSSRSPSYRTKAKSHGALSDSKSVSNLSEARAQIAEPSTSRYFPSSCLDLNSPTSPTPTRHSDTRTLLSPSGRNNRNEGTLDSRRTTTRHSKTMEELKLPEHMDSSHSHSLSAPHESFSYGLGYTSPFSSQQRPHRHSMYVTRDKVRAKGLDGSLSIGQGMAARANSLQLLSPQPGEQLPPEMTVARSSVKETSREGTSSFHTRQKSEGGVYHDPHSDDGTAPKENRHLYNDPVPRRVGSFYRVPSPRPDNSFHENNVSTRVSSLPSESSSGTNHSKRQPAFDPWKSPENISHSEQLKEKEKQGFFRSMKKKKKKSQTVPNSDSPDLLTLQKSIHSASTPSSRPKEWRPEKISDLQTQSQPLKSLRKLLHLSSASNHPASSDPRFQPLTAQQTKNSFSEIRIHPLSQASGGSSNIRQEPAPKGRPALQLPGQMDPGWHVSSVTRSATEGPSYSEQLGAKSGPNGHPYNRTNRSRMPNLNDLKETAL
# Note: in the data inactive means no Kd found up to 30 µM.
row,SMILES,Kd
1,N[C@@H]1CCCN(c2c(/C=C3\SC(=O)NC3=O)cccc2-c2ccccc2)C1,> 30 µM (inactive)
2,CN1CC[C@@H](c2c(O)cc(O)c3c(=O)cc(-c4ccccc4Cl)oc23)[C@@H]1CO,0.024 µM
3,COc1cc(CCc2cc(NC(=O)c3ccc(N4C[C@@H](C)N[C@@H](C)C4)cc3)n[nH]2)cc(OC)c1 [AZD-4547],> 30 µM (inactive)
4,C[C@@H](Nc1cc(F)cc(F)c1)c1cc(C(=O)N(C)C)cc2c(=O)cc(N3CCOCC3)oc12 [AZD-8186],> 30 µM (inactive)
5,CNC(=O)c1ccc(-c2cnc3ncc(Cc4ccc5ncccc5c4)n3n2)cc1F [CAPMATINIB],2.04 µM
6,CCc1cnn2c(NCc3ccc[n+]([O-])c3)cc(N3CCCC[C@H]3CCO)nc12 [DINACICLIB],> 30 µM (inactive)

# Molecular target: Cyclin-dependent kinase 2 (Homo sapiens, UniProt P24941)
row,SMILES,Kd
1,N[C@@H]1CCCN(c2c(/C=C3\SC(=O)NC3=O)cccc2-c2ccccc2)C1,> 30 µM (inactive)
2,CN1CC[C@@H](c2c(O)cc(O)c3c(=O)cc(-c4ccccc4Cl)oc23)[C@@H]1CO,> 30 µM (inactive)
3,C[C@@H](Nc1cc(F)cc(F)c1)c1cc(C(=O)N(C)C)cc2c(=O)cc(N3CCOCC3)oc12 [AZD-8186],> 30 µM (inactive)
4,CNC(=O)c1ccc(-c2cnc3ncc(Cc4ccc5ncccc5c4)n3n2)cc1F [CAPMATINIB],> 30 µM (inactive)

# Molecular target: T2, Long-chain-fatty-acid--CoA ligase 5 (Homo sapiens, UniProt Q9ULC5)
# T2 sequence (Q9ULC5 whole entry): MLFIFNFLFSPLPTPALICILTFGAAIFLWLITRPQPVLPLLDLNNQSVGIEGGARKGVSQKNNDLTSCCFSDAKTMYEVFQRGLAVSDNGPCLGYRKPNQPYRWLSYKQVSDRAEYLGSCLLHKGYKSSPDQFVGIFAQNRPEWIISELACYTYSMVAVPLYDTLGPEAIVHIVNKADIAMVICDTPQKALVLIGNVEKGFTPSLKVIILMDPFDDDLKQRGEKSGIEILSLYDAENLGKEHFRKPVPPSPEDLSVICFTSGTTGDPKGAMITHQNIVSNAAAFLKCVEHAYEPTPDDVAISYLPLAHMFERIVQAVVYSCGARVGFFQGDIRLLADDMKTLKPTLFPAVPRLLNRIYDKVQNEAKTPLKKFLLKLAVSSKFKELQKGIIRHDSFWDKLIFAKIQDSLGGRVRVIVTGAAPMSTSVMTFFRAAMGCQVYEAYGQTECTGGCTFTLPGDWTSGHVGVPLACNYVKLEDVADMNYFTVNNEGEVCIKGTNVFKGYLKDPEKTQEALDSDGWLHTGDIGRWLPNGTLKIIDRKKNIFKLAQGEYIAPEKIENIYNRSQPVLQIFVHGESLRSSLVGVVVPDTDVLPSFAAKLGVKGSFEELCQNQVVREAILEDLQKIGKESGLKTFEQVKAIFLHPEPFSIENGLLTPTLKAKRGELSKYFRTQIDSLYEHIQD
row,SMILES,Kd
1,CN1CC[C@@H](c2c(O)cc(O)c3c(=O)cc(-c4ccccc4Cl)oc23)[C@@H]1CO,> 30 µM (inactive)
2,COc1cc(CCc2cc(NC(=O)c3ccc(N4C[C@@H](C)N[C@@H](C)C4)cc3)n[nH]2)cc(OC)c1 [AZD-4547],> 30 µM (inactive)
3,C[C@@H](Nc1cc(F)cc(F)c1)c1cc(C(=O)N(C)C)cc2c(=O)cc(N3CCOCC3)oc12 [AZD-8186],> 30 µM (inactive)
4,CCc1cnn2c(NCc3ccc[n+]([O-])c3)cc(N3CCCC[C@H]3CCO)nc12 [DINACICLIB],> 30 µM (inactive)

# Molecular target: Choline-phosphate cytidylyltransferase A (Homo sapiens, UniProt P49585)
# Sequence (P49585 whole entry): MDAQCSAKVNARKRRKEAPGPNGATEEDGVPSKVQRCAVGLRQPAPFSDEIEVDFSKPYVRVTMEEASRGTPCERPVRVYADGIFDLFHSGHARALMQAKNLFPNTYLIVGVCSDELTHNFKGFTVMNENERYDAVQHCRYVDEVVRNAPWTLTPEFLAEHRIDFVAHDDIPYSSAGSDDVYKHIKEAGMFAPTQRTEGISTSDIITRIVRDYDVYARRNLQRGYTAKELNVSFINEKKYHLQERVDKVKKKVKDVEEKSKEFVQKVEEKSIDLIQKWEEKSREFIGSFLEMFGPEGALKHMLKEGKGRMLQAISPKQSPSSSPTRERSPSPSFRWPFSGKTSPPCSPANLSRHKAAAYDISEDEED
row,SMILES,Kd
1,N[C@@H]1CCCN(c2c(/C=C3\SC(=O)NC3=O)cccc2-c2ccccc2)C1,> 30 µM (inactive)
2,CCc1cnn2c(NCc3ccc[n+]([O-])c3)cc(N3CCCC[C@H]3CCO)nc12 [DINACICLIB],> 30 µM (inactive)

# Molecular target: Cyclin-dependent kinase 17 (Homo sapiens, UniProt Q00537)
# Sequence (Q00537 whole entry): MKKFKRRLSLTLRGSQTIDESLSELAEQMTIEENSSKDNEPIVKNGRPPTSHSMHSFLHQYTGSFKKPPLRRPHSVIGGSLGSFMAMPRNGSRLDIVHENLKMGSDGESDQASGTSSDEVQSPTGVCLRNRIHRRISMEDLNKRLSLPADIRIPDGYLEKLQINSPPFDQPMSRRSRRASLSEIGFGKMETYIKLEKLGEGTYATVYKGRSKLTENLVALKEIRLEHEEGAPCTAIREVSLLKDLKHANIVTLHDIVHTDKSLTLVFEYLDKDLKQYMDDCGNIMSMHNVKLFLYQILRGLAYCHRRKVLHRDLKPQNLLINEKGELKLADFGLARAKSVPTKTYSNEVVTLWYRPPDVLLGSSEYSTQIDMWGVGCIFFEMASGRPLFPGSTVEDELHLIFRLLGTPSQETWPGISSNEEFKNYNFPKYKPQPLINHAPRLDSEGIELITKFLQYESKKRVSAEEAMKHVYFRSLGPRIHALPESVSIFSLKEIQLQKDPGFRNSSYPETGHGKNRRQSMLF
row,SMILES,Kd
1,CN1CC[C@@H](c2c(O)cc(O)c3c(=O)cc(-c4ccccc4Cl)oc23)[C@@H]1CO,> 30 µM (inactive)
2,COc1cc(CCc2cc(NC(=O)c3ccc(N4C[C@@H](C)N[C@@H](C)C4)cc3)n[nH]2)cc(OC)c1 [AZD-4547],> 30 µM (inactive)
3,C[C@@H](Nc1cc(F)cc(F)c1)c1cc(C(=O)N(C)C)cc2c(=O)cc(N3CCOCC3)oc12 [AZD-8186],> 30 µM (inactive)
4,CNC(=O)c1ccc(-c2cnc3ncc(Cc4ccc5ncccc5c4)n3n2)cc1F [CAPMATINIB],> 30 µM (inactive)

# Molecular target: Mitogen-activated protein kinase 14 (Homo sapiens, UniProt Q16539)
# Sequence (Q16539 whole entry): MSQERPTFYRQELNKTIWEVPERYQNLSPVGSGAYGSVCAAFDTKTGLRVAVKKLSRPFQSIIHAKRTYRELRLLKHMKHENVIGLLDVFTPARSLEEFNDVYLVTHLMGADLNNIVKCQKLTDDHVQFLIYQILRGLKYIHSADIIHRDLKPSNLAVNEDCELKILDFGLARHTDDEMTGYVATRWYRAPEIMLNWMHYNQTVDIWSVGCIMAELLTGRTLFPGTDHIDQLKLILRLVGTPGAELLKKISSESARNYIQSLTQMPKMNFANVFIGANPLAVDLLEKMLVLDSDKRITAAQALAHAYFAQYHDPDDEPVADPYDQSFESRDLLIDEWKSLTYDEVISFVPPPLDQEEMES
row,SMILES,Kd
1,N[C@@H]1CCCN(c2c(/C=C3\SC(=O)NC3=O)cccc2-c2ccccc2)C1,> 30 µM (inactive)
2,CN1CC[C@@H](c2c(O)cc(O)c3c(=O)cc(-c4ccccc4Cl)oc23)[C@@H]1CO,> 30 µM (inactive)
3,COc1cc(CCc2cc(NC(=O)c3ccc(N4C[C@@H](C)N[C@@H](C)C4)cc3)n[nH]2)cc(OC)c1 [AZD-4547],> 30 µM (inactive)
4,C[C@@H](Nc1cc(F)cc(F)c1)c1cc(C(=O)N(C)C)cc2c(=O)cc(N3CCOCC3)oc12 [AZD-8186],> 30 µM (inactive)
5,CNC(=O)c1ccc(-c2cnc3ncc(Cc4ccc5ncccc5c4)n3n2)cc1F [CAPMATINIB],> 30 µM (inactive)

# Molecular target: Misshapen-like kinase 1 (Homo sapiens, UniProt Q8N4C8)
# Sequence (Q8N4C8 whole entry): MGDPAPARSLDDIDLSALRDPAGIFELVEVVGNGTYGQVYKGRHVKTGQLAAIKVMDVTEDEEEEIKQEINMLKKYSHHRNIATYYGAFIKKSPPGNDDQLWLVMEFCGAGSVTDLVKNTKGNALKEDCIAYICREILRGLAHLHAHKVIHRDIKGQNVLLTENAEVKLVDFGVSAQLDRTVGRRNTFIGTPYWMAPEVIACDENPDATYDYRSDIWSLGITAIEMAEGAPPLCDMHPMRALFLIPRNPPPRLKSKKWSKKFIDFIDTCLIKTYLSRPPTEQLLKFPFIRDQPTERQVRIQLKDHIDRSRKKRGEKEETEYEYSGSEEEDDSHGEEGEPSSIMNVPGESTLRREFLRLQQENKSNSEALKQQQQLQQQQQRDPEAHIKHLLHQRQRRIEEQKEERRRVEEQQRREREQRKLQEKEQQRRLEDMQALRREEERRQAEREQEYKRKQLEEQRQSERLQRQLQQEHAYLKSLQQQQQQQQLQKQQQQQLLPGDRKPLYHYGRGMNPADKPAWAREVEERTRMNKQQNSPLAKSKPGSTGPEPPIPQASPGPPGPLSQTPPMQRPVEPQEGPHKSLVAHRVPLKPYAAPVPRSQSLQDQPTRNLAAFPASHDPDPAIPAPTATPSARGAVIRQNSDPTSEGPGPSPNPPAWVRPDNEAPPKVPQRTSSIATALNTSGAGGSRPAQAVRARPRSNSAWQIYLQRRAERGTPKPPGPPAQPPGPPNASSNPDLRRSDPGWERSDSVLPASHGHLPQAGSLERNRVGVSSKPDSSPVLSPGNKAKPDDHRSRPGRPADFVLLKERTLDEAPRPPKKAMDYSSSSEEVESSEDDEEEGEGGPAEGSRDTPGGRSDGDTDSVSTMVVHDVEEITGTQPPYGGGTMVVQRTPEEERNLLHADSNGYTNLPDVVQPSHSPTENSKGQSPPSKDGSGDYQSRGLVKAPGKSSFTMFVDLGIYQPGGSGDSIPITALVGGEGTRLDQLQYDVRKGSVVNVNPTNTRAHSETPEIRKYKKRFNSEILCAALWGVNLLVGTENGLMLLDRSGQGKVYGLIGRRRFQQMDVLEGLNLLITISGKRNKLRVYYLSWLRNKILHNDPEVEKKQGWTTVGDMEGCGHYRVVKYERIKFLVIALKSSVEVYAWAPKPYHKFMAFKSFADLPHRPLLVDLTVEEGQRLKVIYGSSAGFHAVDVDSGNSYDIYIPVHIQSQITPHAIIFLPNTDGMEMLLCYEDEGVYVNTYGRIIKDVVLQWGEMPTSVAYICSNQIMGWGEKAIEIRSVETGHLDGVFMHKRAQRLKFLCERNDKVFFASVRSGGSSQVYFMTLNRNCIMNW
row,SMILES,Kd
1,CN1CC[C@@H](c2c(O)cc(O)c3c(=O)cc(-c4ccccc4Cl)oc23)[C@@H]1CO,> 30 µM (inactive)
2,CNC(=O)c1ccc(-c2cnc3ncc(Cc4ccc5ncccc5c4)n3n2)cc1F [CAPMATINIB],> 30 µM (inactive)
3,CCc1cnn2c(NCc3ccc[n+]([O-])c3)cc(N3CCCC[C@H]3CCO)nc12 [DINACICLIB],> 30 µM (inactive)

# Molecular target: Guanine nucleotide-binding protein G(i) subunit alpha-2 (Homo sapiens, UniProt P04899)
# Sequence (P04899 whole entry): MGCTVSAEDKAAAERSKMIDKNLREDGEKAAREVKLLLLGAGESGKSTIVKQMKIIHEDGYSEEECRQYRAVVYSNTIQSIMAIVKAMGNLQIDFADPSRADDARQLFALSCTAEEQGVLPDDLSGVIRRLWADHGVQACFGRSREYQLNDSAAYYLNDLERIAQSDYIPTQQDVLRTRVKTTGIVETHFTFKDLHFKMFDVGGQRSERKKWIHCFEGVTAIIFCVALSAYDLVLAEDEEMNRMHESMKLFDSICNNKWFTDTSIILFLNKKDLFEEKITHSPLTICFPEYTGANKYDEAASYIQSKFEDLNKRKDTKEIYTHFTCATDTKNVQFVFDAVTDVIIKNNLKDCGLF
row,SMILES,Kd
1,N[C@@H]1CCCN(c2c(/C=C3\SC(=O)NC3=O)cccc2-c2ccccc2)C1,> 30 µM (inactive)
2,C[C@@H](Nc1cc(F)cc(F)c1)c1cc(C(=O)N(C)C)cc2c(=O)cc(N3CCOCC3)oc12 [AZD-8186],> 30 µM (inactive)
3,CNC(=O)c1ccc(-c2cnc3ncc(Cc4ccc5ncccc5c4)n3n2)cc1F [CAPMATINIB],> 30 µM (inactive)
4,CCc1cnn2c(NCc3ccc[n+]([O-])c3)cc(N3CCCC[C@H]3CCO)nc12 [DINACICLIB],> 30 µM (inactive)

# Molecular target: Dual specificity protein kinase CLK4 (Homo sapiens, UniProt Q9HAZ1)
# Sequence (Q9HAZ1 whole entry): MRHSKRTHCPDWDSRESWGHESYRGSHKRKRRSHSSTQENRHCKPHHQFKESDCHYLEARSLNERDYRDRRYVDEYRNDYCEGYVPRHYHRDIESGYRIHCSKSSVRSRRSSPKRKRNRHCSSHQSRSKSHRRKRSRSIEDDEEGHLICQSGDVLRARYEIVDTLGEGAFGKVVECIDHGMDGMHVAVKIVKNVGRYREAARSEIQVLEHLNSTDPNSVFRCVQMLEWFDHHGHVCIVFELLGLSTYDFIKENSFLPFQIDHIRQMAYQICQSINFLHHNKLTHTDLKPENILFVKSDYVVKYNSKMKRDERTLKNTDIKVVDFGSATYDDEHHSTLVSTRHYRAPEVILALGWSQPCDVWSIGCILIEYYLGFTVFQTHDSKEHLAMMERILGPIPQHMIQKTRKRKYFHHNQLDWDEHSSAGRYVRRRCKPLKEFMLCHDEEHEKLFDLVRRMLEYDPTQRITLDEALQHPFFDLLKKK
row,SMILES,Kd
1,CN1CC[C@@H](c2c(O)cc(O)c3c(=O)cc(-c4ccccc4Cl)oc23)[C@@H]1CO,> 30 µM (inactive)
2,COc1cc(CCc2cc(NC(=O)c3ccc(N4C[C@@H](C)N[C@@H](C)C4)cc3)n[nH]2)cc(OC)c1 [AZD-4547],> 30 µM (inactive)

# From ChEMBL document CHEMBL3991601, “The target landscape of clinical kinase drugs” (Science, 2017)
